Experimental data from PMC9847679, “The anti-breast cancer stem cell properties of gold(I)-non-steroidal anti-inflammatory drug complexes” (Chemical Science, 2022).

Legend:
[1] = system: HMLER-shEcad mammospheres; experiment: Mammosphere viability assay (TOX8); assay type: cell-based, human; details: 5 days incubation
Protocol: Tumorsphere Formation and Viability Assay.
in ultralow-attachment 96-well plates (Corning) and incubated in MEGM supplemented with B27 (Invitrogen), 20 ng mL-1 EGF and 4 μg mL-1 heparin (Sigma) for 5 days. […] The viability of the mammospheres was determined by addition of a resazurin-based reagent, TOX8 (Sigma). After incubation for 16 h, the fluorescence of the solutions was read at 590 nm (λex = 560 nm). Viable mammospheres reduce the amount of the oxidised TOX8 form (blue) and concurrently increase the amount of the fluorescent TOX8 intermediate (red), indicating the degree of mammosphere cytotoxicity caused by the test compound. Fluorescence values were normalised to DMSO-containing controls and plotted as concentration of test compound versus % mammospheres viability. IC50 values were interpolated from the resulting dose dependent curves. The reported IC50 values are the average of three independent experiments, each consisting of two replicates per concentration level (overall n = 6).

MDA-MB-468 cells = experiment: Monolayer cytotoxicity (MTT assay), MDA-MB-468 cells; assay type: cell-based, human; details: 72 h incubation
Description: Cell Lines and Cell Culture Conditions. The human mammary epithelial HMLER and HMLER-shEcad cell lines were kindly donated by Prof. R. A. Weinberg (Whitehead Institute, MIT). The human epithelial breast MCF10A, breast adenocarcinoma MDA-MB-231 and MDA-MB-468, murine epithelial breast 4T1, and embryonic kidney HEK 293 cell lines were acquired from American Type Culture Collection (ATCC, Manassas, VA, USA).
HMLER, HMLER-shEcad, and MCF10A cells were maintained in Mammary Epithelial Cell Growth Medium (MEGM) with supplements and growth factors (BPE, hydrocortisone, hEGF, insulin, and gentamicin/amphotericin-B). MDA-MB-231, MDA-MB-468, 4T1, and HEK 293 cells were maintained in Dulbecco's Modified Eagle's Medium (DMEM) supplemented with fetal bovine serum (10 %) and penicillin/streptomycin (1 %). The cells were grown at 310 K in a humidified atmosphere containing 5% CO2.
Monolayer Cytotoxicity Studies. Exponentially growing cells were seeded at a density of approximately 5 × 10^3 cells per well in 96-well flat-bottomed microplates and allowed to attach for 24 h prior to addition of compounds. Various concentrations of the test compounds (0.0004-100 μM) were added and incubated for 72 h at 37 °C (total volume 200 μl). Stock solutions of the compounds were prepared as 10 mM DMSO solutions and diluted using cell […]
media. The final concentration of DMSO in each well was ≤1 %. After 72 h, 20 μl of MTT (4 mg mL-1 in PBS) was added to each well and the plates incubated for an additional 4 h at 37 °C. The media/MTT mixture was eliminated and DMSO (100 μl per well) was added to dissolve the formazan precipitates. The optical density was measured at 550 nm using a 96-well multiscanner autoreader. Absorbance values were normalised to (DMSO-containing) control wells and plotted as concentration of test compound versus % cell viability. IC50 values were interpolated from the resulting dose dependent curves. The reported IC50 values are the average of three independent experiments (n = 18). […]
Cellular Uptake. […]

[2] = Water-octanol partition coefficient (shake-flask, UV-vis); assay type: physicochemical; details: room temperature 24 h
Protocol: Measurement of water-octanol partition coefficient (LogP). The LogP values for 1-8 were determined using the shake-flask method and UV-vis spectroscopy. The 1-octanol used in this experiment was pre-saturated with water. An aqueous solution of 1-8 (500 μL, 100 μM) was incubated with 1-octanol (500 μL) in a 1.5 mL tube. The tube was shaken at room temperature for 24 h. The two phases were separated by centrifugation and the 1-8 content in each phase was determined by UV-vis spectroscopy. […]

[3] = Reaction with thiol-containing biomolecules (1H and 31P NMR); details: 10 mM in DMSO-d6, 37 °C, 72 h
Protocol: As the mechanism of toxicity of many gold(I) complexes is associated to their interaction with thiol groups in proteins,[23] the reaction of 1 with N-acetylcysteine (NAC) and glutathione (GSH), model thiol-containing biomolecules, was probed using ^1H and ^31P{^1H} NMR spectroscopy studies (over 72 h at 37 °C). […] The ^31P{^1H} NMR studies also indicated the immediate formation of [Au^I(NAC)(PPh3)] or [Au^I(GSH)(PPh3)] (Fig. S50–S51 ^†). [Au^I(NAC)(PPh3)] and [Au^I(GSH)(PPh3)] were independently prepared in situ by reacting [Au^I(acac)(PPh3)][58] with NAC or GSH in DMSO-d6, to confirm the abovementioned assignments.

HMLER-shEcad cells = experiment: FITC Annexin V-propidium iodide assay; assay type: cell-based, human; details: IC50 value ×2, 48 h
Protocol: Annexin V-Propidium Iodide Assay. HMLER-shEcad cells were incubated with and […]
harvested from adherent cultures by trypsinisation. The FITC Annexin V/Dead Cell Apoptosis Kit was used. The manufacture’s (Thermo Fisher Scientific) protocol was followed to carry out this experiment.
1× Annexin binding buffer (100 µL) (10 mM HEPES, 140 mM NaCl, 2.5 mM CaCl2, pH 7.4), then 5 µL FITC Annexin V and 1 µL PI (100 µg/ mL) were added to each sample and incubated at room temperature for 15 min. After which more 1× Annexin binding buffer (400 µL) was added while gently mixing. The cells were analysed using a FACSCanto II flow cytometer (BD Biosciences) (10,000 events per sample were acquired) at the University of Leicester FACS Facility. The FL1 channel was used to assess Annexin V binding and the FL2 channel was used to assess PI uptake. Cell populations were analysed using the FlowJo […]
ice-cold methanol (for 30 min), and suspended in PBS (200 μL). […]
(§1) COX-2 Inhibition Enzyme Immunoassay (EIA). […]
(§2) (ovine) Inhibitor Screening Assay (Cayman Chemicals).” The assay was performed according to the manuf acturer’s instructions using a 96-well plate set up.

COX-2 = COX-2 expression assay (flow cytometry); assay type: cell-based, human; details: LPS 2.5 μM 24 h pre-treatment; 1 at IC50 value or indomethacin 20 μM, 48 h
Protocol: COX-2 Expression Assay. HMLER-shEcad cells were seeded in 6-well plates (at a density […]
indomethacin (20 μM) and incubated for a further 48 h. The cells were then harvested by trypsinisation, fixed with 4% paraformaldehyde (at 37 °C for 10 min), permeabilised with ice-cold methanol (for 30 min), and suspended in PBS (200 μL). […]
labelled anti-COX-2 antibody (5 μL) was then added to the cell suspension and incubated in the dark for 1 h. The cells were then washed with PBS (1 mL) and analysed using a FACSCanto II flow cytometer (BD Biosciences) (10,000 events per sample were acquired) at the University of Leicester FACS Facility. The FL1 channel was used to assess COX-2 expression. Cell populations were analysed using the FlowJo software (Tree Star).
as §1, §2

What does the source list for `COc1ccc2c(c1)c(CC(=O)[O][Au][PH](c1ccccc1)(c1ccccc1)c1ccccc1)c(C)n2C(=O)c1ccc(Cl)cc1` [complex 1]?
IC50 [1]: 2 ± 0.1 µM; IC50 (MDA-MB-468 cells): 4.47 ± 0.17 µM; LogP value [2]: 1.64 ± 0.42; reaction with stoichiometric NAC or GSH [3]: The reaction occurred immediately; apoptosis induction (HMLER-shEcad cells): induced large populations of cells to undergo late-stage apoptosis; COX-2 expression (COX-2): decreased
